# According to patent US7820670B2 (Alcon Research, Ltd., priority 2006, dated 2010):
# Structures can show the parent of a compound that is named as a salt. Where two headings read alike, the source gives them in different places.
# Tests used:
# [1] = tested on: lasered (hypertensive) eyes of conscious cynomolgus monkeys; assay: Acute IOP response in lasered (hypertensive) eyes of conscious cynomolgus monkeys; format: in vivo; details: 30 ug, one 30 μL aliquot topical to right eye
# Protocol: Intraocular pressure (IOP) can be determined with an Alcon Pneumatonometer after light corneal anesthesia with 0.1% proparacaine. Eyes are washed with saline after each measurement. After a baseline IOP measurement, test compound is instilled in one 30 μL aliquot to the right eyes only of nine cynomolgus monkeys. Vehicle is instilled in the right eyes of six additional animals. Subsequent IOP measurements are taken at 1, 3, and 6 hours.
# [2] = biological target: ROCK 1 (Homo sapiens, UniProt Q13464); assay: Rho kinase assay (IMAP ROCK-I kit, fluorescence polarization)
# Sequence of ROCK 1 (Q13464 whole entry, species assumed): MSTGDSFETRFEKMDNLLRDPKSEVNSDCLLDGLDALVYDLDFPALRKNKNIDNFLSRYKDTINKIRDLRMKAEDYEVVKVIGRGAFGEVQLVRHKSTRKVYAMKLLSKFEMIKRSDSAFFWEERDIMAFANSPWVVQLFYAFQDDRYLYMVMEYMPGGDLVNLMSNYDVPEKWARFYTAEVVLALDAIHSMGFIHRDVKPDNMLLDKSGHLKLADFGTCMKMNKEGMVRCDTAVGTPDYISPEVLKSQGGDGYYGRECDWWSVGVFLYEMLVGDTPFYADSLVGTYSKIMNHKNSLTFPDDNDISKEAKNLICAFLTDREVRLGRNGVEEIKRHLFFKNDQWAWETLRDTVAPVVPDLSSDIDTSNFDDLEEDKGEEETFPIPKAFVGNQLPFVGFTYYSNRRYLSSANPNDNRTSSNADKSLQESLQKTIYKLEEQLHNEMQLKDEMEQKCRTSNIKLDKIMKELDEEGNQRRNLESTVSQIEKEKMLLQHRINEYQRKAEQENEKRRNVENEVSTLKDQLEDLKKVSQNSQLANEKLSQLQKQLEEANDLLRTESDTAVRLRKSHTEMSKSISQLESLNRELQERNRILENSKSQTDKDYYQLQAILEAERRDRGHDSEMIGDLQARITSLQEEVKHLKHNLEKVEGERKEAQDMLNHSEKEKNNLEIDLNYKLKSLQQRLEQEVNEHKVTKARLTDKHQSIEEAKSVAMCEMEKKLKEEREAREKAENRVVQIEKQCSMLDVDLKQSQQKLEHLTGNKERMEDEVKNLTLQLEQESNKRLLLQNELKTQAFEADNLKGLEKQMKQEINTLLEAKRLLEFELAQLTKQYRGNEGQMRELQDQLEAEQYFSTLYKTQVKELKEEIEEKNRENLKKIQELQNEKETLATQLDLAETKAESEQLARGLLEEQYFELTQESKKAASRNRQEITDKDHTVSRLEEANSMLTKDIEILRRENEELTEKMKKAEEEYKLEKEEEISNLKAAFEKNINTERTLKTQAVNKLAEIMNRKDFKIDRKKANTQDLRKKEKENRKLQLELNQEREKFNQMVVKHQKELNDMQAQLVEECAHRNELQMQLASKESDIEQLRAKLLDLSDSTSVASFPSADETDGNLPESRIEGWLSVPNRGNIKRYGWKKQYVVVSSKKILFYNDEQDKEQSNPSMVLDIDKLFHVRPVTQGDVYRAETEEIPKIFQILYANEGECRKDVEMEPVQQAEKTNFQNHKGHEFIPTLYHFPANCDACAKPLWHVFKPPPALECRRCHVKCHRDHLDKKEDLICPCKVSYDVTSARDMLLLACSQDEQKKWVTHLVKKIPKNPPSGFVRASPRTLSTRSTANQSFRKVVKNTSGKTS
# Protocol: (§1) The rho kinase assays were performed using a Biomek 2000 Robotic Workstation (Beckman Instruments, Palo Alto, Calif.) in a 96-well plate format. The assay was performed utilizing the IMAP ROCK-I and ROCK-II kits (Molecular Devices, Sunnyvale, Calif.) as follows. […] The substrate, enzyme, and ATP dilutions were made with the reaction buffer provided by the vendor. Test compounds were diluted in 10:10 DMSO-ethanol (vol/vol). For the actual assay, the various components were added into black, clear bottom, 96-well plates (Costar, Corning, N.Y.) in a final volume of 20μl per well. After the enzyme reaction (60 min at 23° C.), 60 μl of the binding solution was added per well and incubated for an additional 30 minutes in the dark at 23° C. Fluorescence polarization of the reaction mixtures was then measured on the Analyst™ HT instrument (Molecular Devices, Sunnyvale, Calif.).
# [3] = biological target: T1, ROCK 2 (Homo sapiens, UniProt O75116); assay: Rho kinase assay (IMAP ROCK-II kit, fluorescence polarization); format: biochemical
# T1 construct: purchased Molecular Devices, Sunnyvale, Calif
# T1 sequence (O75116 whole entry, species assumed): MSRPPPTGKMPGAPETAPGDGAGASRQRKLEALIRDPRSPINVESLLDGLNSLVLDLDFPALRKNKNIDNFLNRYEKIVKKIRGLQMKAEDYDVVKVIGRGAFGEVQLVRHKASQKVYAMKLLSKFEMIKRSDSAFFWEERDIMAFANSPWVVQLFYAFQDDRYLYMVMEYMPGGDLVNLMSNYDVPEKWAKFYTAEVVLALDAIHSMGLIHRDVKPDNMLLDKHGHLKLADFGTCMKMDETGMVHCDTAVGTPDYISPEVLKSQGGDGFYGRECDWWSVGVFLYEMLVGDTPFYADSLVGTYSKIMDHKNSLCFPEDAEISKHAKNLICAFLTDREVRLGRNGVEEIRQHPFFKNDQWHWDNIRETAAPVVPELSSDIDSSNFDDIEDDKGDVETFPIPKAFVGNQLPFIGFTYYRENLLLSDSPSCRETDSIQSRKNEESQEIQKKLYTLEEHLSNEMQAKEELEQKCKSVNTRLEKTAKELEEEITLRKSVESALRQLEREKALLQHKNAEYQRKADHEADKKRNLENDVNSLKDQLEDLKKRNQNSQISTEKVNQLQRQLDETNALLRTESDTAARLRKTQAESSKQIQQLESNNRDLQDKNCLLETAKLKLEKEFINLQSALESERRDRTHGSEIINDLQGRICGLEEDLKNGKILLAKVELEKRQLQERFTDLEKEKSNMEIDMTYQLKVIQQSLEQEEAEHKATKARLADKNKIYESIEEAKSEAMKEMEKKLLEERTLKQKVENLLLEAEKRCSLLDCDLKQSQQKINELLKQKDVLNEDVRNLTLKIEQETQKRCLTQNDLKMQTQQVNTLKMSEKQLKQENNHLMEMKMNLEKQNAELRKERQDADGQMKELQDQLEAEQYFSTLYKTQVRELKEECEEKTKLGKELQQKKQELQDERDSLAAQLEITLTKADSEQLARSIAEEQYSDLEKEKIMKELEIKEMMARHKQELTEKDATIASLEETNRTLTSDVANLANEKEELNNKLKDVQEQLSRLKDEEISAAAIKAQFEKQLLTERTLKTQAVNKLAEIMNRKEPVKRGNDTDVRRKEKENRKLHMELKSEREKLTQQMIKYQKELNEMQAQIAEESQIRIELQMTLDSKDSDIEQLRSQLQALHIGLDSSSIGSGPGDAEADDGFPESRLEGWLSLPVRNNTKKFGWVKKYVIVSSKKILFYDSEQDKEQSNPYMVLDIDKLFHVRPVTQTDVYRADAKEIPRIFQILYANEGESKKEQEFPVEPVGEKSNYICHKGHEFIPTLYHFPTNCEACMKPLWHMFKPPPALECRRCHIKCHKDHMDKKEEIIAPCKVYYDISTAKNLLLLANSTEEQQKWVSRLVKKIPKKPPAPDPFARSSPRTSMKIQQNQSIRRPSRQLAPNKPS
# Protocol: as §1
# [4] = substrate 200 nM, ATP 10 μM, 60 min at 23° C.
IC50 [2],"IC50 [3, 4]",Compound,also measured
2.1 µM,2 µM,"CCC/C=C/c1cnc2ccc(NCc3ccccn3)nn12 [Example 19, (E)-3-(Pent-1-enyl)-N-(pyridin-2-ylmethyl)imidazo[1,2-b]pyridazin-6-amine hydrochloride]",
9.7 µM,> 100 µM,"CCCC/C=C/c1cnc2ccc(N3CCOCC3)nn12 [Example 5, (E)-4-(3-(Hex-1-enyl)imidazo[1,2-b]pyridazin-6-yl)morpholine fumarate]",
78 µM,> 100 µM,"CCCC/C=C/c1cnc2ccc(NC(CC)CO)nn12 (centres unmarked) [Example 10, (E)-2-(3-(Hex-1-enyl)imidazo[1,2-b]pyridazin-6-ylamino)butan-1-ol]",
35 µM,20 µM,"CCCC/C=C/c1cnc2ccc(NCCOC)nn12 [Example 7, (E)-3-(Hex-1-enyl)-N-(2-methoxyethyl)imidazo[1,2-b]pyridazin-6-amine fumarate]",
58 µM,65 µM,"CCCC/C=C/c1cnc2ccc(NCCN(C)C)nn12 [Example 8, (E)-N^1-(3-(Hex-1-enyl)imidazo[1,2-b]pyridazin-6-yl)-N^2,N^2-dimethylethane-1,2-diamine fumarate]",
7 µM,3.7 µM,"CCCC/C=C/c1cnc2ccc(NCc3ccccn3)nn12 [Example 9, (E)-3-(Hex-1-enyl)-N-(pyridin-2-ylmethyl)imidazo[1,2-b]pyridazin-6-amine fumarate]",
> 100 µM,97 µM,"COCCNc1ccc2ncc(C)n2n1 [Example 12, N-(2-Methoxyethyl)-3-methylimidazo[1,2-b]pyridazin-6-amine]",
55 µM,> 100 µM,"C1=C(c2cnc3ccc(NCCCN4CCOCC4)nn23)CCCC1 [Example 20, 3-Cyclohexenyl-N-(3-morpholinopropyl)imidazo[1,2-b]pyridazin-6-amine hydrochloride]",

Compound,IC50 [2],"IC50 [3, 4]",also measured
"Cc1n[nH]c2ccc(-c3cnc4ccc(N5CCCNCC5)nn34)cc12 [Example 55, 3-(3-Methyl-1H-indazol-5-yl)-6-perhydro-1,4-diazepin-1-yl-imidazo[1,2-b]pyridazine trihydrochloride]",0.0088 µM,0.011 µM,IOP % Change ([1]; 1 hr after dosing): 1.0%; IOP Change mmHg ([1]; 1 hr after dosing): 1.0 mmHg; IOP % Change ([1]; 3 hrs after dosing): −21.6%; IOP Change mmHg ([1]; 3 hrs after dosing): −8.7 mmHg; IOP % Change ([1]; 6 hrs after dosing): −22.0%; IOP Change mmHg ([1]; 6 hrs after dosing): −8.9 mmHg
"c1cc2[nH]ncc2cc1-c1cnc2ccc(N3CCNCC3)nn12 [Example 51, 3-(1H-Indazol-5-yl)-6-piperazin-1-yl-imidazo[1,2-b]pyridazine dihydrochloride]",0.12 µM,0.0035 µM,
"Cc1n[nH]c2ccc(-c3cnc4ccc(NC5CCCNC5)nn34)cc12 (centres unmarked) [Example 53, [3-(3-methyl-1H-indazol-5-yl)-imidazo[1,2-b]pyridazine-6-yl]-piperidin-3-yl-amine trihydrochloride]",0.082 µM,0.073 µM,
"NC(=O)c1ccc(-c2cnc3ccc(N4CCCNCC4)nn23)cc1 [Example 58, 4-(6-Perhydro-1,4-diazepin-1-yl-imidazo[1,2-b]pyridazin-3-yl)benzamide dihydrochloride]",56 µM,,IC50 [3]: 16 µM
"Cc1cnc2ccc(NCCCN3CCOCC3)nn12 [Example 16, 3-Methyl-N-(3-morpholinopropyl)imidazo[1,2-b]pyridazin-6-amine fumarate]",> 100 µM,> 100 µM,
